Patent publication US20230137092A1, “Composition and Method for the Treatment and Prevention of Cardiac, Pulmonary, Dermal, and Renal Fibrosis” (EMERALD HEALTH PHARMACEUTICALS INC., priority 2020, published 2023)

Experiments:
ERK1+2 = assay: Ang II-induced ERK1+2 phosphorylation in hICF, immunoblot; type: cell-based, human; conditions: hICF preincubated with compound, Ang II for 30 minutes
Description: The effect of compound of Formula (VIII) on Ang II signaling pathways in hICF was investigated. ERK1+2 and NFAT activation are two pathways activated by Ang-II (Wakatsuki et al., 2004, Trends Biochem Sci, 29:609-617). hICF were preincubated with compound of Formula (VIII), treated with Ang II for 30 minutes, washed with PBS and proteins extracted in 50 μL of lysis buffer (50 mM Tris-HCl pH 7.5, 150 mM NaCl, 1% (v/v) NP-40, 10% (v/v) glycerol, 10 mM NaF, 1 mM Na3VO4, aprotinin (10 μg/ml), leupeptine (10 μg/ml), pepstatin (1 μg/ml) and 1 mM PMSF saturated). Separated proteins in 10% SDS/PAGE gels were transferred to PVDF membranes and blocked in TBS solution containing 0.1% Tween 20 and 5% bovine serum albumin (BSA) for 1 hour at room temperature. Immunodetection of specific proteins was carried out by incubation with primary antibodies against p-ERK (1:1000; #4695 Cell Signaling Technology) and ERK (1:1000, M5670, Sigma). Membranes were incubated with horseradish peroxidase-conjugated secondary antibody was added and proteins detected by chemiluminescence system (GE Healthcare Europe GmbH). Compound of Formula (VIII) inhibited Ang II-induced ERK1+2 phosphorylation (FIG. 16B).

NFAT = assay: Gal4-NFAT / Gal4-Luc reporter assay in hICF; type: cell-based, human; conditions: hICF transfected with Gal4-Luc and Gal4-NFAT, stimulated 6 hours
Description: hICF cells were transiently transfected for 24 hours with the Gal4-Luc reporter plasmid (which includes five Gal4 DNA binding sites fused to the luciferase gene) and the Gal4-NFAT1-415plasmid for 24 hours using Roti-Fect (Carl Roth GmbH & Co. KG, Karlsruhe, Germany). Then cells were stimulated for 6 hours and luciferase activity in the cell lysates was measured. The specific transactivation expressed as a percentage of activation relative to control. Compound of Formula (VIII) inhibited Ang II-induced NFAT activation (FIG. 16B).

- Ang II-induced NFAT activation (luciferase) (NFAT): inhibited
Structure (SMILES): CCCCc1nc(Cl)c(CO)n1Cc1ccc(-c2ccccc2-c2nn[nH]n2)cc1 [Losartan, reference compound]
- Ang II-induced ERK1+2 phosphorylation (ERK1+2): inhibited
